# Measurements from paper PMC12165799, “Antimicrobial peptide developed with machine learning sequence optimization targets drug resistant Staphylococcus aureus in mice” (The Journal of Clinical Investigation, 2025).
# Key:
# [1] = test system: S. aureus MW2 skin infection; assay: Skin-abraded murine infection, established infection model, bacterial load; format: in vivo, mice; set-up: Bacterial load from skin specimens, established infection model / bacterial load in skin, Sup. Fig. 12: unit not given here; details: for Bacterial load from skin specimens, established infection model: 2% ointment 24 hours after infection; for bacterial load in skin, Sup. Fig. 12: 2%, mice
# Procedure: (§1) 599 In vivo murine skin infection and treatment
# (§2) 600 We used a topical skin-abraded murine infection model with minor modifications to test
# (§3) 601 the in vivo efficacy of the CIT-8 peptide (25). We performed all mouse studies following the
# (§4) 602 protocol approved by the Institutional Animal Care and Use Committee. In brief, we anesthetized
# (§5) 603 female C57BL/6 mice (6 weeks) (Jackson Laboratory, Bar Harbor, ME, USA) with ketamine-
# (§6) 604 xylazine (90 mg/kg ketamine and 10 mg/kg xylazine) via intraperitoneal injection. We shaved the
# (§7) 605 dorsal side of the mice in the middle of the back (area=2 cm2). To disrupt skin integrity, we tape-
# (§8) 606 stripped with Tensoplast® seven times in succession, replacing the tape each time, resulting in
# (§9) 607 visibly damaged skin. We infected the damaged skin area with 1 × 10^7 CFU of S. aureus MW2
# (§10) 608 (exponential phase bacteria in PBS) with an inoculum of 50 µl using a pipette tip. Ten minutes
# (§11) 609 (prophylactic model) and 24 h (established model) after bacterial inoculation, we applied 30 mg
# (§12) 610 of 1 and 2% (w/w) CIT-8 ointment in a white petroleum jelly base (Cat no. 19-090-843, Fisher
# (§13) 611 Scientific, MA, USA) to the skin. We also included animal groups treated with only petroleum
# (§14) 612 jelly or with 2% commercial mupirocin ointment as negative and positive controls, respectively.
# (§15) 613 For pain management, we used the analgesic buprenorphine SR (0.05 mg/kg).
# (§16) 614 After 24 h of treatment, we euthanized the animals, separated the skin from the underlying
# (§17) 615 fascia and muscle tissue, and excised about 2 cm2 of skin from the infected area. We ground the
# (§18) 616 skin in 1ml of PBS buffer (Gibco, MD, USA). We serially diluted 100 µl of the solution in PBS
# (§19) 617 and plated it on Remel™ TSA plates (Fisher, MA, USA) to estimate viable colony counts after 18
# (§20) 618 h of incubation at 37 °C. Further, we added 10 µl of EDTA-Free, protease inhibitor cocktail Set III
# (§21) 619 (Millipore Sigma, MA, USA) to 500 µl of the ground skin PBS solution for cytokine estimation.
# (§22) 620 The Cytokine Core, LLC (Indianapolis, IN, USA) performed the cytokine concentration analysis
# [2] = test system: S. aureus MW2 skin infection; assay: Skin-abraded murine infection, prophylactic (acute) model, bacterial load; format: in vivo, mice; details: for Bacterial load from skin specimens, prophylactic model: 2% ointment 10 minutes after infection
# Procedure: as §1, §2, §3, §4, §5, §6, §7, §8, §9, §10, §11, §12, §13, §14, §15, §16, §17, §18, §19, §20, §21, §22
# [3] = HPLC retention time on C18 reverse-phase column; format: physicochemical
# Description: Table 1 Physical parameters and minimal inhibitory concentrations of citropin 1.1-derived peptides against S. aureus MW2 | column: rT^D (min)
# S. aureus MW2 = assay: Minimal inhibitory concentration (MIC) assay, broth microdilution; format: cell-based, Staphylococcus aureus; details: S. aureus MW2; broth microdilution, TSB, 1 × 10^6 CFU/ml, 37°C 18 h, OD600, duplicate
# Procedure: 300 Synthesis of peptides
# 302 Piscataway, NJ, USA).
# (§23) 305 Minimal inhibitory concentration (MIC) assay
# (§24) We made serial dilutions of 10×
# (§25) We determined the MIC using OD600
# (§26) Accordingly, we added 150 mM NaCl,
# (§27) 319 established protocol (5).
# [4] = test system: S. aureus MW2 (MRSA) exponential and persister cells; assay: S. aureus persister cell and time-kill assays (MW2); format: cell-based, Staphylococcus aureus; details: within 120 minutes; ciprofloxacin 10 μg/mL, bithionol 10 μg/mL
# Procedure: as §23, §24, §25, §26, §27
# (§28) 323 aureus VRS1) in PBS. To assess the killing kinetics of CIT-8 in persister cells, we added 1 ml of
# (§29) 324 cell suspension to the wells of a 2-ml deep-well assay block (Cat no. 3960, Corning, NY, USA)
# (§30) We also included ciprofloxacin (at 10 μg/ml) for S.
# (§31) 326 aureus MW2 and linezolid (100 μg/ml) for S. aureus VRS1 as antibiotic controls. Additionally,
# (§32) 327 we included bithionol (at 10 μg/ml) as a positive control, known for its ability to kill stationary
# (§33) 328 phase persister cells (6). We incubated the plates at 37°C, with shaking at 225 rpm. At specific
# (§34) 329 times (0, 15, 30, 60, and 120 min), we collected 10 μl samples, diluted them serially, and then
# (§35) 330 plated them on tryptic soy agar (TSA) (BD Difco, NJ, USA) plates. We incubated the TSA plates
# (§36) 331 for 18 hours at 37°C for colony counting. We performed these experiments in duplicate. As a
# (§37) 332 comparison, we prepared the exponential cells of S. aureus MW2 and VRS1 in PBS and analyzed
# (§38) 333 their killing kinetics in the same manner as described for persister cells.
# [5] = test system: S. aureus VRS1 (VRSA) exponential and persister cells; assay: S. aureus persister cell and time-kill assays (VRS1); format: cell-based, Staphylococcus aureus; details: within 120 minutes; bithionol 10 μg/mL, linezolid 100 μg/mL
# Procedure: as §23, §24, §25, §26, §27, §28, §29, §30, §31, §32, §33, §34, §35, §36, §37, §38
# HepG2 cells = assay: Mammalian cell cytotoxicity assay
# Procedure: 410 the HepG2 cells at 37°C in 5% CO2 in Dulbecco’s Modified Eagle Medium (DMEM) (Gibco, MA,
# We harvested and resuspended cells in fresh DMEM
compound,measurement,setting,value
"C/C(=C\C(=O)OCCCCCCCCC(=O)O)C[C@@H]1OC[C@H](C[C@@H]2O[C@H]2[C@@H](C)[C@H](C)O)[C@@H](O)[C@H]1O [mupirocin, reference compound]","Bacterial load from skin specimens, established infection model",[1]; animal 1,5546493
same,"Bacterial load from skin specimens, established infection model",[1]; animal 2,5663717
same,"Bacterial load from skin specimens, established infection model",[1]; animal 3,38314176
same,"Bacterial load from skin specimens, established infection model",[1]; animal 4,4793289
same,"Bacterial load from skin specimens, established infection model",[1]; animal 5,8342990
same,"Bacterial load from skin specimens, established infection model",[1]; animal 6,7083333
same,"Bacterial load from skin specimens, established infection model",[1]; animal 7,21857924
same,"Bacterial load from skin specimens, established infection model",[1]; animal 8,14962594
same,"Reduction of S. aureus MW2 vs vehicle, established infection model","[1]; 2% w/w ointment, single dose 24 hours after inoculation, n = 8",2.4 log
same,"bacterial load in skin, Sup. Fig. 12",[1]; animal 1,84745.8
same,"bacterial load in skin, Sup. Fig. 12",[1]; animal 2,264317
same,"bacterial load in skin, Sup. Fig. 12",[1]; animal 3,520833
same,"bacterial load in skin, Sup. Fig. 12",[1]; animal 4,633914
same,"bacterial load in skin, Sup. Fig. 12",[1]; animal 5,864198
same,"bacterial load in skin, Sup. Fig. 12",[1]; animal 6,285714
same,"bacterial load in skin, Sup. Fig. 12",[1]; animal 7,1465201
same,"bacterial load in skin, Sup. Fig. 12",[1]; animal 8,754717
same,"Bacterial load from skin specimens, prophylactic model",[2]; animal 1,500000
same,"Bacterial load from skin specimens, prophylactic model",[2]; animal 2,380952
same,"Bacterial load from skin specimens, prophylactic model",[2]; animal 3,320000
same,"Bacterial load from skin specimens, prophylactic model",[2]; animal 4,47058.8
same,"Bacterial load from skin specimens, prophylactic model",[2]; animal 5,200000
same,"Bacterial load from skin specimens, prophylactic model",[2]; animal 6,34782.6
same,"Bacterial load from skin specimens, prophylactic model",[2]; animal 7,176000
same,"Bacterial load from skin specimens, prophylactic model",[2]; animal 8,533333
same,"Bacterial load from skin specimens, prophylactic model",[2]; animal 9,769231
same,"Bacterial load from skin specimens, prophylactic model",[2]; animal 10,1538462
same,"Bacterial load from skin specimens, prophylactic model",[2]; animal 11,289655
same,"Bacterial load from skin specimens, prophylactic model",[2]; animal 12,252632
same,"Reduction of S. aureus MW2 burden vs vehicle, prophylactic model","[2]; 2% w/w ointment, single treatment 10 minutes after inoculation, n = 12",2.8 log
H-GLFKVIKKLLSVI-NH2 [CIT-7],rT (HPLC retention time),[3],19.956 min
same,MIC SA,S. aureus MW2,4 µg/mL
H-GLFKVIKKVAKVI-NH2 [CIT-4],rT (HPLC retention time),[3],17.776 min
same,MIC SA,S. aureus MW2,> 32 µg/mL
Oc1c(Cl)cc(Cl)cc1Sc1cc(Cl)cc(Cl)c1O [bithionol],Reduction of MRSA persister cells,[4],1.5 logs
same,Reduction of VRSA persister cells,[5],1.5 logs
same,Reduction of exponentially growing VRSA,[5],1.0 logs
"CNC(C)C1CCC(N)C(OC2C(N)CC(N)C(OC3OCC(C)(O)C(NC)C3O)C2O)O1 (centres unmarked) [gentamicin, reference compound]","HepG2 cell viability, Sup. Fig. 4B","HepG2 cells; 4 μg/ml, replicate 1",100.314
same,"HepG2 cell viability, Sup. Fig. 4B","HepG2 cells; 4 μg/ml, replicate 2",105.383
same,"HepG2 cell viability, Sup. Fig. 4B","HepG2 cells; 4 μg/ml, replicate 3",105.587
same,"HepG2 cell viability, Sup. Fig. 4B","HepG2 cells; 8 μg/ml, replicate 1",101.846
same,"HepG2 cell viability, Sup. Fig. 4B","HepG2 cells; 8 μg/ml, replicate 2",103.015
same,"HepG2 cell viability, Sup. Fig. 4B","HepG2 cells; 8 μg/ml, replicate 3",101.846
same,"HepG2 cell viability, Sup. Fig. 4B","HepG2 cells; 16 μg/ml, replicate 1",102.511
same,"HepG2 cell viability, Sup. Fig. 4B","HepG2 cells; 16 μg/ml, replicate 2",103.671
same,"HepG2 cell viability, Sup. Fig. 4B","HepG2 cells; 16 μg/ml, replicate 3",100.107
same,"HepG2 cell viability, Sup. Fig. 4B","HepG2 cells; 32 μg/ml, replicate 1",102.999
same,"HepG2 cell viability, Sup. Fig. 4B","HepG2 cells; 32 μg/ml, replicate 2",106.118
same,"HepG2 cell viability, Sup. Fig. 4B","HepG2 cells; 32 μg/ml, replicate 3",103.265
same,"HepG2 cell viability, Sup. Fig. 4B","HepG2 cells; 64 μg/ml, replicate 1",103.75
same,"HepG2 cell viability, Sup. Fig. 4B","HepG2 cells; 64 μg/ml, replicate 2",104.801
same,"HepG2 cell viability, Sup. Fig. 4B","HepG2 cells; 64 μg/ml, replicate 3",97.7499
same,"HepG2 cell viability, Sup. Fig. 4B","HepG2 cells; 128 μg/ml, replicate 1",104.41
same,"HepG2 cell viability, Sup. Fig. 4B","HepG2 cells; 128 μg/ml, replicate 2",112.88
same,"HepG2 cell viability, Sup. Fig. 4B","HepG2 cells; 128 μg/ml, replicate 3",101.795
H-GLFSVIKKLLSVI-NH2 [CIT-6],rT (HPLC retention time),[3],23.302 min
same,MIC SA,S. aureus MW2,2 µg/mL
H-GLFKVIKKVASVI-NH2 [CIT-3],rT (HPLC retention time),[3],17.400 min
same,MIC SA,S. aureus MW2,> 32 µg/mL
CC(=O)NC[C@H]1CN(c2ccc(N3CCOCC3)c(F)c2)C(=O)O1 [linezolid],Reduction of VRSA persister cells,[5],no impact
same,Reduction of exponentially growing VRSA,[5],0.7 logs
H-GLFDVIKKLLSVI-NH2 [CIT-5],rT (HPLC retention time),[3],22.300 min
same,MIC SA,S. aureus MW2,> 32 µg/mL
H-GLFDVIKKVASVI-NH2 [CIT-1],rT (HPLC retention time),[3],17.570 min
same,MIC SA,S. aureus MW2,> 32 µg/mL
H-GLFSVIKKVASVI-NH2 [CIT-2],rT (HPLC retention time),[3],15.711 min
same,MIC SA,S. aureus MW2,> 32 µg/mL
O=C(O)c1cn(C2CC2)c2cc(N3CCNCC3)c(F)cc2c1=O [Ciprofloxacin],Reduction of MRSA persister cells,[4],did not have any effect
